Results as given in US20060167083A1, “Therapeutic methods and compositions involving isoflav-3-ene and isoflavan structures” (priority 2002, published 2006).

Key:
[1] = biological target: T1, human topo I (Homo sapiens, UniProt P11387); experiment: Topo I-mediated plasmid relaxation assay; type: biochemical; conditions: concentrations up to 100 μg/ml, absence of ATP
T1 construct: purchased Topogen (Columbus, Ohio)
T1 sequence (P11387 1-765): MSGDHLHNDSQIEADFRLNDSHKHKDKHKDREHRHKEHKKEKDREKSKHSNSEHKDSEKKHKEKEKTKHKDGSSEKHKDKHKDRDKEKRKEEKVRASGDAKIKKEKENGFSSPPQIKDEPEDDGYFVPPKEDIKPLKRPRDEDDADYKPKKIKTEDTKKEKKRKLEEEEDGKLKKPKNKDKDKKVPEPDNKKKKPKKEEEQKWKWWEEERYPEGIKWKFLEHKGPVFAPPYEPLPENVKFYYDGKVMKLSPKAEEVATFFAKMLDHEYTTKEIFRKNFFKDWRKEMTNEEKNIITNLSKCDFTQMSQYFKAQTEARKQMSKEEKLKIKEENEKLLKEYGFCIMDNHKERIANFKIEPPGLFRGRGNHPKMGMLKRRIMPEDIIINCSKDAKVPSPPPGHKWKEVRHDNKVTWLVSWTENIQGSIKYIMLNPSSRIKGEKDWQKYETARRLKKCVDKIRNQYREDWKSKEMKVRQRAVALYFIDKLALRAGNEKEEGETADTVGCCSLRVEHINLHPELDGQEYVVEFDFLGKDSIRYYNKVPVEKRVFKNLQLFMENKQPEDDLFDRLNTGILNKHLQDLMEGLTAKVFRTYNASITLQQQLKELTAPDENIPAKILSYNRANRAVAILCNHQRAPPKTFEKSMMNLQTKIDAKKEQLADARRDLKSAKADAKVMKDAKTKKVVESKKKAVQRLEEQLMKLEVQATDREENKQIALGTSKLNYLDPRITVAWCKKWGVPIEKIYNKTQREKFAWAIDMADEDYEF
Experimental: Topo I activity was determined by converting supercoiled pUC8 DNA (SC) into its relaxed from (REL).
For the determination of topoisomerase (topo) I catalytic activity, pUC8 DNA was used as the substrate in a reaction volume of 20 μl containing the following: 10 mM Tris-HCl, pH 7.9, 1 mM EDTA, 150 mM NaCl, 0.1% BSA, 0.1 mM spermidine, 5% glycerol, and 2 units of purified human topo I. The inhibitor, when applicable, was added as indicated, and the reaction was initiated by the addition of the enzyme. Reactions were carried out at 37° C. for 30 min. Gel electrophoresis was performed at 4 V/cm for 5 h in Tris-borate-EDTA buffer. For the quantitative determination of topo I activity, photographic negatives were scanned. The area representing supercoiled DNA, migrating as a single band at the bottom of the gel, was determined. The concentrations of the inhibitor that prevented 50% of the supercoiled DNA from being converted into relaxed DNA (IC50 values) were determined by averaging the data from at least three experiments.

[2] = tested on: human cervical carcinoma (HeLa); experiment: HeLa cell apoptosis; type: cell-based; conditions: 10 μm
[3] = tested on: LNCaP human prostate cells; experiment: Athymic mice xenograft assay; type: in vivo, athymic Balb/c mice; conditions: 2 mg uid orally, 5 days per week, 58 days; treated versus control group, p<0.0003
Experimental: Athymic mice xenograft assay: LNCaP human prostate cells were implanted subcutaneously into athymic Balb/c mice and De (2 mg uid) administered orally from the time of cell inoculation for 5 days per week. Animals were killed 58 days post-implantation and tumour mass (mg) calculated from the formula (width^2×length)/2 as used in NCI.

[4] = tested on: normal NIH 3T3 cells; experiment: Viability of normal NIH 3T3 cells in focus formation assay; type: cell-based; conditions: 10 μg/ml, 3 weeks
Experimental: Focus formation assay: Low passage NIH 3T3 cells were transfected with either human ras gene (Ras) or empty vector (Vect) control^19. Two days later the transfected cells were seeded in 6 well plates. After reaching confluence, the cells were cultured in the vehicle DMSO or De (10 μg/ml final) for 3 weeks with media change every 3-4 days (±De). Foci were scored after staining with 0.5% crystal violet. One experiment of two performed is shown.

[5] = tested on: Sphingosine Kinase (SK); experiment: Sphingosine kinase activity assay in endothelial cells; type: cell-based, human
Experimental: Sphingosine Kinase activity assay: SK activity was measured in vitro by incubating the cytosolic fraction with 10 μM sphingosine-BSA complex and [γ^32P]ATP (1 mM, 0.5 mCi/ml) for 15 minutes at 37° C., as previously described^42. Stimulation was with TNFα (1 ng/ml) (rhTNF-α; R & D Systems, Minneapolis Minn. USA), PMA (100 ng/ml) and IL-1β (100 units/ml) (hrIL-1β; Immunex, Seattle Wa. USA) for 10 minutes. Cells were treated with De or DMSO vehicle as control for 18 hours prior to stimulation.

## Oc1ccc(C2=Cc3ccc(O)cc3OC2)cc1 [Dehydroequol, 4′,7-dihydroxyisoflav-3-ene]
[1]
  inhibition of topo I-catalysed relaxation of pUC8 DNA: did not inhibit
[2]
  apoptosis of HeLa cells: leading to HeLa cell apoptosis
[3]
  tumour growth inhibition: 49%
[4]
  viability of normal cells: still maintaining the viability
[5]
  SK inhibition compared with N,N-dimethylsphingosine (DMS): equipotent
[5]; dose-dependent, 18 hours pretreatment, IL-1β 100 units/ml 10 minutes
  inhibition of SK activity generated by stimulation with IL-1: inhibits
[5]; dose-dependent, 18 hours pretreatment, PMA 100 ng/ml 10 minutes
  inhibition of SK activity generated by stimulation with PMA: inhibits
[5]; dose-dependent, 18 hours pretreatment, TNFα 1 ng/ml 10 minutes
  inhibition of SK activity generated by stimulation with TNF: inhibits
[5]; unstimulated
  effect on basal levels of SK activity: no effect
